Experiment [1] concerns the target Casein kinase I isoform delta (Homo sapiens) (UniProt P48730). Put plainly: Inhibition of N-terminal GST-fused human CK1delta catalytic domain (1 to 294 residues) expressed in Escherichia coli expression system using CKtide as substrate at 1 uM in presence of ATP by Mobility shift assay.
For experiment [2], the target named is Platelet-derived growth factor receptor alpha (Homo sapiens) (UniProt P16234). Put plainly: Inhibition of N-terminal GST-tagged human PDGFR-alpha cytoplasmic domain (550 to 1089 residues) expressed in baculovirus-infected Sf21 cells using CSKtide as substrate at 1 uM in presence of ATP by Mobility shift assay.
Experiment [3] concerns the target Proto-oncogene tyrosine-protein kinase ROS (Homo sapiens) (UniProt P08922). As to the kind of experiment: Inhibition of N-terminal GST-tagged human ROS cytoplasmic domain (1883 to 2347 residues) expressed in baculovirus-infected Sf21 cells using IRS1 as substrate at 1 uM in presence of ATP by Mobility shift assay.
Experiment [4] has as its target Activated CDC42 kinase 1 (Homo sapiens) (UniProt Q07912). Put plainly: Inhibition of N-terminal GST-fused wild type human ACK catalytic domain (110 to 476 residues) expressed in baculovirus-infected Sf21 cells using WASP peptide as substrate at 1 uM in presence of ATP by Mobility shift assay.
Experiment [5] concerns the target Homeodomain-interacting protein kinase 3 (Homo sapiens) (UniProt Q9H422). Put plainly: Inhibition of N-terminal GST-fused human HIPK3 catalytic domain (161 to 562 residues) expressed in baculovirus expression system using DYRKtide-F as substrate at 1 uM in presence of ATP by Mobility shift assay.
For experiment [6], the target named is SRSF protein kinase 1 (Homo sapiens) (UniProt Q96SB4). As to the kind of experiment: Inhibition of N-terminal GST-fused full length human SRPK1 (1 to 655 residues) expressed in Escherichia coli expression system using SRPKtide as substrate at 1 uM in presence of ATP by IMAP assay.
Sequence of SRSF protein kinase 1 (Homo sapiens) (Q96SB4 whole entry, the tested form may be a part): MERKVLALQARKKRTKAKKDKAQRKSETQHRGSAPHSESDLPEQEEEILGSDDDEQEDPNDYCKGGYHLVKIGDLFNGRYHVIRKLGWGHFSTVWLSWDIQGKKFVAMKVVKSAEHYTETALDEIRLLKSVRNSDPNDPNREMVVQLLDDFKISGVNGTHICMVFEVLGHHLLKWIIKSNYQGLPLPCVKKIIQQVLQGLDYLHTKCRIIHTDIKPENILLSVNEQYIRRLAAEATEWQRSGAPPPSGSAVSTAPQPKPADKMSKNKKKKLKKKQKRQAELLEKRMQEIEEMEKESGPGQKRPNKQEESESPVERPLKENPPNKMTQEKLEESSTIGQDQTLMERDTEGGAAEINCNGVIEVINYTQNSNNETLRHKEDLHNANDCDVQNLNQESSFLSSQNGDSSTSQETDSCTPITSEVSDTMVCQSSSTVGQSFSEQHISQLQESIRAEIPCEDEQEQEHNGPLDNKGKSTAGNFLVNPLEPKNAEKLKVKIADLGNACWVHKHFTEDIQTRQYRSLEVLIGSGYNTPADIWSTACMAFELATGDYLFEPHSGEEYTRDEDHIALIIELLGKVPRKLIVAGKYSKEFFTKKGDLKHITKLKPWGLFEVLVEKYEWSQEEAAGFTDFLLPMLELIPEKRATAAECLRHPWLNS
Experiment [7] can be described thus: Inhibition of N-terminal GST-tagged human TRKB cytoplasmic domain (456 to 825 residues) expressed in baculovirus-infected Sf21 cells using Srctide as substrate at 1 uM in presence of ATP by Mobility shift assay. The conditions noted are these: condition cancer.
The target of experiment [8] is Serine/threonine-protein kinase Sgk1 (Homo sapiens) (UniProt O00141). Put plainly: Inhibition of N-terminal GST-tagged truncated human SGK (61 to 431 residues) expressed in baculovirus expression system using SGKtide as substrate at 1 uM in presence of ATP by Mobility shift assay.
Sequence of Serine/threonine-protein kinase Sgk1 (Homo sapiens) (O00141 whole entry, the tested form may be a part, canonical isoform): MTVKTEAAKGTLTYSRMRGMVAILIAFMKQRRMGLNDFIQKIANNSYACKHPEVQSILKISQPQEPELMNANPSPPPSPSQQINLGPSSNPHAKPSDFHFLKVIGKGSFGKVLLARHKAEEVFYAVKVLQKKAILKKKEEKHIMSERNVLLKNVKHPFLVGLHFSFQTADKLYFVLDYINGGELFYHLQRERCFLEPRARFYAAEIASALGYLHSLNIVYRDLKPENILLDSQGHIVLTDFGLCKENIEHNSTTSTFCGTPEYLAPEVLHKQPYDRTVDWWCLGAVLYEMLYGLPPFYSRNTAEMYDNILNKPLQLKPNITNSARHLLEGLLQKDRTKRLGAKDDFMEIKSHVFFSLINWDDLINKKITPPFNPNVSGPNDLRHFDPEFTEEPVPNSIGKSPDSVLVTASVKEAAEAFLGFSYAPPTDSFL
Experiment [9] concerns the target Casein kinase I isoform gamma-1 (Homo sapiens) (UniProt Q9HCP0). As to the kind of experiment: Inhibition of N-terminal GST-fused full length human CK1gamma1 (1 to 422 residues) expressed in baculovirus expression system using CKtide as substrate at 1 uM in presence of ATP by Mobility shift assay.
In experiment [10] the target is Platelet-derived growth factor receptor beta (Homo sapiens) (UniProt P09619). As to the kind of experiment: Inhibition of N-terminal GST-tagged human PDGFR-beta cytoplasmic domain (557 to 1106 residues) expressed in baculovirus-infected Sf21 cells using CSKtide as substrate at 1 uM in presence of ATP by Mobility shift assay.
Experiment [11] addresses Tyrosine-protein kinase TXK (Homo sapiens) (UniProt P42681). Put plainly: Inhibition of N-terminal GST-tagged human TXK catalytic domain (260 to 527 residues) expressed in baculovirus-infected Sf21 cells using Srctide as substrate at 1 uM in presence of ATP by Mobility shift assay.
Experiment [12] addresses Cytoplasmic tyrosine-protein kinase BMX (Homo sapiens) (UniProt P51813). As to the kind of experiment: Inhibition of N-terminal GST-fused full length human BMX ( 1 to 675 residues) expressed in baculovirus-infected Sf21 cells using Srctide as substrate at 1 uM in presence of ATP by Mobility shift assay.
Experiment [13] deals with Tyrosine-protein kinase Srms (Homo sapiens) (UniProt Q9H3Y6). As to the kind of experiment: Inhibition of N-terminal GST-tagged human SRM catalytic domain (215 to 488 residues) expressed in baculovirus-infected Sf21 cells using Blk/Lyntide as substrate at 1 uM in presence of ATP by Mobility shift assay.
In experiment [14] the target is Tyrosine-protein kinase Fyn (Homo sapiens) (UniProt P06241). Put plainly: Inhibition of human FYN at 1 uM by mobility shift assay relative to control.
Experiment [15] concerns the target Serine/threonine-protein kinase Nek9 (Homo sapiens) (UniProt Q8TD19). Put plainly: Inhibition of N-terminal GST-fused truncated human NEK9 (1 to 346, 733 to 979 residues) expressed in baculovirus expression system using CDK7 peptide as substrate at 1 uM in presence of ATP by Mobility shift assay.
Experiment [16] deals with Tyrosine-protein kinase JAK1 (Homo sapiens) (UniProt P23458). Put plainly: Inhibition of N-terminal GST-fused human JAK1 catalytic domain (850 to 1154 residues) expressed in baculovirus-infected Sf21 cells using JAK1 substrate peptide at 1 uM in presence of ATP by Mobility shift assay.
The target of experiment [17] is Tyrosine-protein kinase Lyn (Homo sapiens) (UniProt P07948). As to the kind of experiment: Inhibition of N-terminal GST-tagged full length human LynB(1 to 491 residues ) expressed in baculovirus-infected Sf21 cells using Srctide as substrate at 1 uM in presence of ATP by Mobility shift assay.
Sequence of Tyrosine-protein kinase Lyn (Homo sapiens) (P07948 2-512 limits assumed): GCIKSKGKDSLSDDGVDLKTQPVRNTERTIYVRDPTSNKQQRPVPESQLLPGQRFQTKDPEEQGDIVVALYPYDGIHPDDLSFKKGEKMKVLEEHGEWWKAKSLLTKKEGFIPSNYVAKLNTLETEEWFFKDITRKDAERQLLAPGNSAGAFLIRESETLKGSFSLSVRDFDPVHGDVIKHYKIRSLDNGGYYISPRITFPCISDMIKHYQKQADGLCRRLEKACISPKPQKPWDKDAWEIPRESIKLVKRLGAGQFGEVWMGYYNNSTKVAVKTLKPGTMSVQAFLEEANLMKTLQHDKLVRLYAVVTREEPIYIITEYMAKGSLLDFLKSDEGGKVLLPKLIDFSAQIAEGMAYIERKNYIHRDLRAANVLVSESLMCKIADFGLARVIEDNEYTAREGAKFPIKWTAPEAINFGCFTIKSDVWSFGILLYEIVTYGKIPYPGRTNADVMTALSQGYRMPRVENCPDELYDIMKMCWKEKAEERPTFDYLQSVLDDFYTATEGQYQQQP
In experiment [18] the target is Serine/threonine-protein kinase SIK2 (Homo sapiens) (UniProt Q9H0K1). Put plainly: Inhibition of N-terminal GST-fused full length human QIK (1 to 926 residues) expressed in baculovirus expression system using AMARA peptide as substrate at 1 uM in presence of ATP by Mobility shift assay.
Experiment [19] concerns the target STE20-like serine/threonine-protein kinase (Homo sapiens) (UniProt Q9H2G2). As to the kind of experiment: Inhibition of N-terminal GST-fused full length human SLK (1 to 1152 residues) expressed in baculovirus expression system using Moesin-derived peptide as substrate at 1 uM in presence of ATP by Mobility shift assay.
The target of experiment [20] is Aurora kinase A/Targeting protein for Xklp2 (Homo sapiens) (UniProt O14965+Q9ULW0). Put plainly: Inhibition of N-terminal GST-fused full length human AurA (1 to 403 residues)/TPX2 expressed in baculovirus-infected Sf21 cells using Kemptide as substrate at 1 uM in presence of ATP by Mobility shift assay.
For experiment [21], the target named is Tyrosine-protein kinase receptor UFO (Homo sapiens) (UniProt P30530). As to the kind of experiment: Inhibition of N-terminal GST-fused human AXL cytoplasmic domain (464 to 885 residues) expressed in baculovirus-infected Sf21 cells using CSKtide as substrate at 1 uM in presence of ATP by Mobility shift assay.
Experiment [22] has as its target Ribosomal protein S6 kinase alpha-3 (Homo sapiens) (UniProt P51812). As to the kind of experiment: Inhibition of N-terminal GST-fused human full length RSK2 (1 to 740 residues) expressed in baculovirus expression system using S6K peptide(N-FL) as substrate at 1 uM in presence of ATP by Mobility shift assay.
In experiment [23] the target is Leukocyte tyrosine kinase receptor (Homo sapiens) (UniProt P29376). As to the kind of experiment: Inhibition of N-terminal GST-tagged human LTK catalytic domain (498 to 796 residues) expressed in baculovirus-infected Sf21 cells using Srctide as substrate at 1 uM in presence of ATP by Mobility shift assay.

Sequence of Ribosomal protein S6 kinase alpha-3 (Homo sapiens) (P51812 whole entry, the tested form may be a part): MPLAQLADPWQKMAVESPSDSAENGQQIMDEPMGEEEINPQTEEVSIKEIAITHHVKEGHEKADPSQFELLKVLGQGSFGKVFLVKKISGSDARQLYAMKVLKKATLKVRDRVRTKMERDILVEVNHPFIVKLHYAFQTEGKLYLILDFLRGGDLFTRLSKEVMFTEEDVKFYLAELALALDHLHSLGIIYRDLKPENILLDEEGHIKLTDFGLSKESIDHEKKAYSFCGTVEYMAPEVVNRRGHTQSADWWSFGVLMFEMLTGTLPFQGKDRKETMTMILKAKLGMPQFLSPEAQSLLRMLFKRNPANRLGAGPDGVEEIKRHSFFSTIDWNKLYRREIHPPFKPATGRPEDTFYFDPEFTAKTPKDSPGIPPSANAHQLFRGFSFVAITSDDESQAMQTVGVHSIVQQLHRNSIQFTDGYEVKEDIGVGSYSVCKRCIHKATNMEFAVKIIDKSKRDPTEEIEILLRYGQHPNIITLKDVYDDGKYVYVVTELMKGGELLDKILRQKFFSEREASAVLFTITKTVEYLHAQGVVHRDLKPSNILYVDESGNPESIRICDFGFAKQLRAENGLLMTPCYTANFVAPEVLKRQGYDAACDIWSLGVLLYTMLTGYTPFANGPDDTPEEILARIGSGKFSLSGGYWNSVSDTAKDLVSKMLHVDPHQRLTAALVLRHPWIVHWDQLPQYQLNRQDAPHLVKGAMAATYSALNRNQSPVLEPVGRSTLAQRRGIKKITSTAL
Sequence of Tyrosine-protein kinase TXK (Homo sapiens) (P42681 whole entry, the tested form may be a part): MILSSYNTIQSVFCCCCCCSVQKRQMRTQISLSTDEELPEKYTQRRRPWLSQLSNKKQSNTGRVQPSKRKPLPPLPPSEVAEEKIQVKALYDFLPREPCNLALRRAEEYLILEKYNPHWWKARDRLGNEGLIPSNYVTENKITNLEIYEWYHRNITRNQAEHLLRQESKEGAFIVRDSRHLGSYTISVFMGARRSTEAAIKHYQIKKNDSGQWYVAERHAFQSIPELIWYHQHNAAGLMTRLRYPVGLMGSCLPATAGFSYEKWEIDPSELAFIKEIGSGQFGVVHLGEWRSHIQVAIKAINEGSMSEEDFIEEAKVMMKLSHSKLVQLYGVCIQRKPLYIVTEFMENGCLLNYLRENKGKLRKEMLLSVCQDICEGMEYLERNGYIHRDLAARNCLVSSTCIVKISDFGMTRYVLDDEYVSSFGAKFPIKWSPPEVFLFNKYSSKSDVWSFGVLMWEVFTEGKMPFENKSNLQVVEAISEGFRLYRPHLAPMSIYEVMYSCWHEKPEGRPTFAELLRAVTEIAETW
Sequence of STE20-like serine/threonine-protein kinase (Homo sapiens) (Q9H2G2 whole entry, looked up, the tested form may be a part): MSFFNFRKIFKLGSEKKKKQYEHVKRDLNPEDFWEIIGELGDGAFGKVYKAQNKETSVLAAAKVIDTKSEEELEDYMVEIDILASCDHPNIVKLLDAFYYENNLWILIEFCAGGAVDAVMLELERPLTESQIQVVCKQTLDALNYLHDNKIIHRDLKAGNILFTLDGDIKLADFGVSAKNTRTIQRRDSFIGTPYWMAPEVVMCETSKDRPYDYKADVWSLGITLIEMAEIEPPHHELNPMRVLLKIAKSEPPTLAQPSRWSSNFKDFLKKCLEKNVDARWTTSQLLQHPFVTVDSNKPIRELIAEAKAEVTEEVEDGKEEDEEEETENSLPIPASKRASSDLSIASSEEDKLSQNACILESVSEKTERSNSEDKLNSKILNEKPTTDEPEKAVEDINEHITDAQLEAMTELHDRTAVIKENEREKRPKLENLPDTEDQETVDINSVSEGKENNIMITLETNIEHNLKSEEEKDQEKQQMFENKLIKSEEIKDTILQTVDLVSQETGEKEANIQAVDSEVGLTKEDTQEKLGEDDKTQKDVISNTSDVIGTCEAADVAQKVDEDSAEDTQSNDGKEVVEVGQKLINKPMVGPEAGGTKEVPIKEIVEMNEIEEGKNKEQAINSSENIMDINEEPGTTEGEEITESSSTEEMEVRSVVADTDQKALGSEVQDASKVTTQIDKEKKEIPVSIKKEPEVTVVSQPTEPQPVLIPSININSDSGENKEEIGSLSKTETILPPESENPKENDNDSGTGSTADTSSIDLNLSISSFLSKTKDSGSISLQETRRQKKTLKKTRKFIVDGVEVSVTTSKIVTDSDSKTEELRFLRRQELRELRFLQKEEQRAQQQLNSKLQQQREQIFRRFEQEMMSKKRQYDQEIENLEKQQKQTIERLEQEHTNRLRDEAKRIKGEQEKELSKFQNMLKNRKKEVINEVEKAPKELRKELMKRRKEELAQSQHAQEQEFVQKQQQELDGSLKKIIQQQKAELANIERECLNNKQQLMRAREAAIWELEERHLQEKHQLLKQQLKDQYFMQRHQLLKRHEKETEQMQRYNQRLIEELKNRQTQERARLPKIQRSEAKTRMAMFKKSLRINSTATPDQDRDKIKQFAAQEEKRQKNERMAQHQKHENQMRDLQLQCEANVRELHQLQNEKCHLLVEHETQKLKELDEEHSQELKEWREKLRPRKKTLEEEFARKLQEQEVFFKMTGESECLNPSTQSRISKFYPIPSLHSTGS
Sequence of Serine/threonine-protein kinase Nek9 (Homo sapiens) (Q8TD19 whole entry, the tested form may be a part): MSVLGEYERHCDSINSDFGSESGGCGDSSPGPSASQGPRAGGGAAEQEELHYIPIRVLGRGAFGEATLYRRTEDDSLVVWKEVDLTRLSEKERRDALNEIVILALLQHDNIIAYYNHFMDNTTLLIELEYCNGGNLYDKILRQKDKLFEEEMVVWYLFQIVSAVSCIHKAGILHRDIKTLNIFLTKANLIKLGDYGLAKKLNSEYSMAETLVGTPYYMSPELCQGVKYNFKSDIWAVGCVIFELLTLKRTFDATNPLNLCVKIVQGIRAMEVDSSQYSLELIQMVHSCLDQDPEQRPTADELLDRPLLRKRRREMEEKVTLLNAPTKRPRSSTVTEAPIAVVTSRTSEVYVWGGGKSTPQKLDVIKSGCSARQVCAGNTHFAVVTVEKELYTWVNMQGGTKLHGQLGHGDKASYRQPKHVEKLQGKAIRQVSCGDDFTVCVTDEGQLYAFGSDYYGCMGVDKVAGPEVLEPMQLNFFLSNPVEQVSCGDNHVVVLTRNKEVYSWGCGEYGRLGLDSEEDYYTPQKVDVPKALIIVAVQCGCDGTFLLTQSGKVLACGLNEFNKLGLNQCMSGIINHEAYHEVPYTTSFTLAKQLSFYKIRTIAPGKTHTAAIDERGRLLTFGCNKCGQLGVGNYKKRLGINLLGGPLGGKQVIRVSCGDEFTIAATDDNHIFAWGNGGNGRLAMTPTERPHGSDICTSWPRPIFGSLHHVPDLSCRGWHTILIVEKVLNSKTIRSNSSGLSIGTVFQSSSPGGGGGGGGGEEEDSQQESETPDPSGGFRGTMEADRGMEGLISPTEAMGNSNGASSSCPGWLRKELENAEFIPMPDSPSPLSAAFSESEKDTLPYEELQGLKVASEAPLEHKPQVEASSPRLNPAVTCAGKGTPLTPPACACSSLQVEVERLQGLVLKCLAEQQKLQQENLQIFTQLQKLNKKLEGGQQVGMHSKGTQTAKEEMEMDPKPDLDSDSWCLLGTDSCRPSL

As a reminder, the inhibition is the relative decrease from the control value, in per cent. On to `Cc1cc(C)c(CNC(=O)c2cc(Br)c3c(c2C)O[C@@](C)([C@H]2CC[C@H](N(C)C)CC2)O3)c(=O)[nH]1`, for which the inhibition was -3% in experiment [1]; -6.1% in [2]; -2.1% in [3]; 0.2% in experiment [4]; -1.8% in experiment [5]; -4.7% in experiment [6]. Besides, the inhibition in experiment [8] is -3%; in experiment [9] it was 0.5%; in [10], -1.3%; in experiment [11], 1.3%; in experiment [12], -2.2%; in experiment [13], -0.1%. Besides, the inhibition in experiment [14] was 2.6%; in [15], -3.3%; in experiment [16] it was -3.3%; in [17] it was -3.2%; in experiment [18], -0.5%; in [19], 1.6%. In addition, the inhibition is -4.6% in [20], -0.5% in [21], -4% in experiment [22] and -3.2% in experiment [23]. Further, in [7], the inhibition at 1 µM is -7.7%.
`Cc1cc(C)c(CNC(=O)c2cc(Cl)c3c(c2C)O[C@@](C)([C@H]2CC[C@H](N(C)C)CC2)O3)c(=O)[nH]1` [VALEMETOSTAT]: the inhibition in [1] was -3.8%; in experiment [2], -4.4%; in experiment [3], -0.9%; in experiment [4], -1.2%; in experiment [5], 1.4%; in experiment [6], -6.9%. Besides, the inhibition in experiment [8] was -4.2%; in experiment [9] it was -1.8%; in experiment [10], -4.5%; in [11] it was -7%; in experiment [12], -3.1%; in [13], 0.6%. Besides, the inhibition in [14] was 5.1%; in experiment [15] it was -1.9%; in [16], -3.3%; in [17], -4.3%; in [18] it was -1.9%; in [19], 3.3%. For the same compound, the inhibition in [20] was -6.8%; in experiment [21] it was -3.5%; in experiment [22] it was -0.5%; in experiment [23], 0.1%. The inhibition at 1 µM in [7] is -8.7%.

Values taken from ChEMBL document CHEMBL5647694, “Novel orally bioavailable EZH1/2 dual inhibitors with greater antitumor efficacy than an EZH2 selective inhibitor” (Cancer Sci, 2017).
